Reference: article PMC10289985, “Brigatinib pharmacokinetics in patients with chronic hepatic impairment” (Investigational New Drugs, 2023)
Like-named read-outs stand apart in the source and are kept apart here.

Experiments:
CYP3A = system: CYP3A; design: method as in PMID 31287236; settings: cited from earlier work
[1] = design: method as in PMID 32816246; settings: single oral 180 mg [14C]-brigatinib; cited from earlier work
[2] = system: ALK-positive metastatic NSCLC; design: method as in PMID 36065449; settings: 180 mg QD with 7-day lead-in at 90 mg QD; median follow-up 28.3 months; cited from earlier work
[3] = Plasma protein binding of brigatinib by rapid equilibrium dialysis of participants' plasma samples; assay type: in vitro ADME, human; settings: for fraction unbound: human, plasma, oral, 90 mg, pooled 2, 8, 24 h postdose
Description: Blood samples were collected before brigatinib administration (predose) and at 0.5, 1, 1.5, 2, 2.5, 3, 4, 6, 8, 12, 24, 36, 48, 72, 96, 120, 144, 168, and 192 hours following brigatinib administration to measure brigatinib plasma concentrations. Samples to assess brigatinib plasma protein binding were collected at 2, 8, and 24 hours postdose.
Free fractions of brigatinib in plasma samples were determined as previously reported. Briefly, free brigatinib was separated from protein-bound brigatinib by rapid equilibrium dialysis of plasma samples against warm (37° C) phosphate-buffered saline using the Thermo Scientific Single-Use Rapid Equilibrium Dialysis kit (Thermo Fisher Scientific, Waltham, MA) according to the manufacturer’s specifications. […] After incubation, samples were analyzed for brigatinib concentrations using liquid chromatography with tandem mass spectrometry as previously reported using a dual-range assay with a lower limit of quantitation of 0.100 ng/mL and an upper limit of quantitation of […].
The PK-evaluable population was defined as participants who received the single dose of brigatinib, had no major protocol deviations that affected the PK analyses, and had sufficient data to calculate PK parameters. Individual participant brigatinib plasma concentration-time profiles were analyzed via noncompartmental analysis using Phoenix WinNonLin version 6.4 (Certara, Inc., Princeton, NJ) to calculate plasma PK parameters. Plasma PK parameters calculated for brigatinib included maximum observed plasma concentration (Cmax), time to first maximum observed plasma concentration (Tmax), area under the plasma concentration-time curve from time 0 to the time of the last measurable concentration (AUC0−last), area under the plasma concentration-time curve from time 0 to infinity (AUC0−∞), terminal elimination half-life (t1/2), apparent oral clearance (CL/F), and apparent volume of distribution during the terminal disposition phase (Vz/F). The fraction of unbound brigatinib in plasma was calculated using the following formula: % free (unbound) = [free brigatinib concentration measured in buffer after dialysis] / [total brigatinib concentration measured in plasma] × 100. Unbound brigatinib PK parameters were derived from the following formula (except for the unbound CL/F and unbound Vz/F, which were calculated as total CL/F or total Vz/F divided by the individual participant’s overall mean fraction unbound): unbound PK parameter = (PK parameter based on total concentrations) × (individual participant’s overall mean fraction unbound value).

[4] = design: method as in PMID 30570839; settings: versus fasted conditions; healthy participants; cited from earlier work
[5] = design: method as in PMID 27836716, PMID 29915924; settings: cited from earlier work
TKI-naive ALK+ NSCLC = system: TKI-naive ALK+ NSCLC; design: method as in PMID 34537440; settings: 95% CI 0.35–0.66; P < 0.0001; cited from earlier work
[6] = Safety and adverse event monitoring after a single 90-mg dose; assay type: in vivo, human
Description: All enrolled participants who received brigatinib were included in the safety population. Adverse event (AE) monitoring occurred throughout the study. Physical examination was conducted at screening with additional symptom-directed physical examinations performed at the investigator’s discretion on study Days −1 and 9. Height, weight, and BMI were recorded at screening. Vital signs were recorded at screening; on Day −1; predose and at 0.5, 1, 2, 3, 4, 6, 8, 12, 24, 36, 48, 72, 96, 120, 144, and 168 hours postdose; and on Day 9. Electrocardiograms were conducted at screening, on Day −1, predose and at 3 and 48 hours postdose, and on Day 9. Clinical laboratory evaluations were performed at screening and on Days −1 and 9 and were reviewed by the investigator for clinical significance.

CYP2C8 = system: CYP2C8; design: method as in PMID 31287236; settings: cited from earlier work

## COc1cc(N2CCC(N3CCN(C)CC3)CC2)ccc1Nc1ncc(Cl)c(Nc2ccccc2P(C)(C)=O)n1 [brigatinib]
CYP3A
  decrease of AUC0−∞ with the strong CYP3A inducer rifampicin: 80%
  increase of AUC0−∞ with the strong CYP3A inhibitor itraconazole: 101%
[1]
  administered dose recovered in the feces: approximately 65%
  administered dose recovered in the urine: 25%
  fecal recovery as unchanged brigatinib: 41%
  urinary recovery as unchanged brigatinib: 86%
[2]
  IRC-assessed confirmed objective response rate (ORR): 56%
  IRC-assessed median progression-free survival (PFS): 16.7 months
[3]; 2, 8 and 24 h postdose within each hepatic function group
  concentration dependence of plasma protein binding: not concentration-dependent
[3]; Child-Pugh C vs healthy participants
  mean fraction unbound, Child-Pugh C relative to healthy participants: 2.7 fold
[3]; Child-Pugh A, mild hepatic impairment (n=6), read-out: mean fraction unbound (free) in plasma
  fraction unbound: 0.111
[3]; Child-Pugh A, read-out: pooled mean ± SD fraction unbound (converted)
  fraction unbound: 0.111
[3]; Child-Pugh B, moderate hepatic impairment (n=6), read-out: mean fraction unbound (free) in plasma
  fraction unbound: 0.108
[3]; Child-Pugh B, read-out: pooled mean ± SD fraction unbound (converted)
  fraction unbound: 0.108
[3]; Child-Pugh C, severe hepatic impairment (n=6), read-out: mean fraction unbound (free) in plasma
  fraction unbound: 0.231
[3]; Child-Pugh C, read-out: pooled mean ± SD fraction unbound (converted)
  fraction unbound: 0.231
[3]; healthy participants, normal hepatic function (n=9), read-out: mean fraction unbound (free) in plasma
  fraction unbound: 0.085
[3]; healthy participants, read-out: pooled mean ± SD fraction unbound (converted)
  fraction unbound: 0.085
[4]
  effect of a high-fat, high-calorie meal on total systemic exposure (AUC): no clinically meaningful effect
[5]
  mean plasma terminal elimination half-life: approximately 25 hours
TKI-naive ALK+ NSCLC
  PFS hazard ratio, brigatinib compared with crizotinib: 0.48
[6]; Child-Pugh A group
  number of TEAEs: 2 events
[6]; Child-Pugh A group (n=6)
  participants with one or more TEAEs: 2 participants
[6]; Child-Pugh B group
  number of TEAEs: 13 events
  participants with moderate TEAEs possibly related to the study drug: Two
[6]; Child-Pugh B group (n=6)
  participants with one or more TEAEs: 4 participants
[6]; Child-Pugh C group
  number of TEAEs: 2 events
[6]; Child-Pugh C group (n=6)
  participants with one or more TEAEs: 2 participants
[6]; all 27 study participants, single 90 mg
  participants with one or more treatment-emergent adverse events (TEAEs): 13 participants
[6]; all participants
  participants with constipation: 2 participants
  participants with dyspnea: 2 participants
  participants with headache: 4 participants
  participants with hypertension: 2 participants
  participants with nausea: 2 participants
[6]; during the study
  changes in laboratory values or electrocardiogram measurements: No clinically significant changes
  discontinuation due to an AE: no participants discontinued
  serious AEs: no serious AEs
[6]; healthy participant group
  number of TEAEs: 5 events
[6]; healthy participant group (n=9)
  participants with one or more TEAEs: 5 participants
[6]; single 90-mg dose, healthy participants and participants with hepatic impairment
  tolerability: well tolerated
CYP2C8
  effect of a strong CYP2C8 inhibitor on brigatinib systemic exposure: no clinically relevant effect
